# Test results taken from US20240100127A1, “TIRZEPATIDE THERAPEUTIC METHODS” (Eli Lilly and Company, priority 2021, published 2024).
# System: patients with T2DM with HbA1c between ≥7.0% and ≤10.5% on metformin or metformin plus an SGLT-2 inhibitor
# Assay: Example 1 clinical trial using tirzepatide, 52 weeks, versus insulin degludec
# Format: in vivo, human
# Details: standard titration protocol
# Excerpt: The enrollment criteria, set forth in Table 1 below, are designed to include participants who are similar to patients seen within a typical diabetes practice, and include some patient with type 2 diabetes that is refractory to oral treatment. Geriatric patients are included. Mean duration with type 2 diabetes about 8 years. Study continues for 52 weeks.
# The study is designed to consist of a screening visit followed by a single-blind 3-week placebo run-in period. Afterwards, patients are randomized to tirzepatide 5, 10, or 15 mg (dosed using an escalation dose protocol) or insulin degludec (standard titration protocol) and followed at approximately monthly intervals. Patients receiving insulin degludec follow standard insulin degludec titration protocol during the study. Study protocol includes blood pressure measurement at each visit and serum lipid profile at study initiation and at 52 weeks using standard clinical methods. Blood Pressure measures using the methods of Example 1 are represented in FIGS. 3 and 4. HDL-C levels using the methods of Example 1 are represented in FIG. 1.
substance,measurement,value
insulin degludec,Percent patients achieving ≤5.7% HbA1c by 52 weeks,insulin degludec: 5.4%
